Here are results for 15 compounds from ChEMBL document CHEMBL5143581, “Design, synthesis and molecular docking studies of imidazole and benzimidazole linked ethionamide derivatives as inhibitors of InhA and antituberculosis agents” (Bioorg Med Chem Lett, 2022).

Data set [1] relates to Mycobacterium tuberculosis. In words: Antimycobacterial activity against Mycobacterium tuberculosis H37Rv. In kind it is functional.
A further data set relates to Vero. In words: Cytotoxicity in African green monkey Vero cells assessed as reduction in cell viability. In kind it is toxicity, cell-based. Conditions: chlorocebus sabaeus.

≈ marks a conversion by molar mass, not a printed value.

For `Cn1ccnc1NC(=O)c1cc(C(N)=S)ccn1`, the lowest concentration to inhibit growth in data set [1] (MIC) was 15.1 µM (≈ 3.95 µg/mL). The Activity with Vero was above 100 µM.

Consider `Cc1ccc2c(c1)nc(NC(=O)c1cc(C(N)=S)ccn1)n2C`, for which it took 3.14 µM (≈ 1.02 µg/mL) to inhibit growth in data set [1] (MIC). Besides, the Activity in the data set on Vero is above 100 µM.

`COc1ccc2c(c1)nc(NC(=O)c1cc(C(N)=S)ccn1)n2C`: in data set [1], the MIC (commonly the lowest concentration found to suppress growth) is 0.35 µM (≈ 0.119 µg/mL). In addition, in the data set with Vero, the Activity was above 100 µM.

Turning to `Cc1cn(C)c(NC(=O)c2cc(C(N)=S)ccn2)n1`, in data set [1], the MIC amounted to 13.6 µM (≈ 3.75 µg/mL). In addition, in the data set with Vero, the Activity was above 100 µM.

Regarding `Cn1c(NC(=O)c2cc(C(N)=S)ccn2)nc2cc(O)ccc21`, the MIC in data set [1] worked out at 0.27 µM (≈ 0.0884 µg/mL). For the same compound, the Activity in the data set with Vero is above 100 µM.

In turn, `Cn1cc(O)nc1NC(=O)c1cc(C(N)=S)ccn1` registered an MIC in data set [1] of 0.97 µM (≈ 0.269 µg/mL). Moreover, the Activity in the data set on Vero was above 100 µM.

In data set [1], `NC(=S)c1ccnc(C(=O)Nc2nc3ccccc3[nH]2)c1` yielded an MIC of 12.6 µM (≈ 3.73 µg/mL). The Activity with Vero was above 100 µM.

In data set [1], `Cn1c(NC(=O)c2cc(C(N)=S)ccn2)nc2ccccc21` gave an MIC of 6.52 µM (≈ 2.03 µg/mL). Moreover, the Activity with Vero was above 100 µM.

The compound `NC(=S)c1ccnc(C(=O)Nc2ncc[nH]2)c1` displayed an MIC in data set [1] of 23.8 µM (≈ 5.9 µg/mL). The Activity in the data set with Vero is above 100 µM.

In data set [1], `Cn1cc(C#N)nc1NC(=O)c1cc(C(N)=S)ccn1` gave an MIC of 1.24 µM (≈ 0.355 µg/mL). The Activity in the data set on Vero is above 100 µM.

The compound `O=C(O)c1cn(C2CC2)c2cc(N3CCNCC3)c(F)cc2c1=O` [CIPROFLOXACIN] gave an MIC in data set [1] of 4.73 µM (≈ 1.57 µg/mL). In addition, the Activity with Vero is above 100 µM.

Consider `CC[C@@H](CO)NCCN[C@@H](CC)CO` [ETHAMBUTOL], for which, in data set [1], 5.01 µM (≈ 1.02 µg/mL) was the least that counted as inhibitory (MIC). Besides, in the data set with Vero, the Activity is above 100 µM.

With `CCc1cc(C(N)=S)ccn1` [ETHIONAMIDE], the minimum inhibitory concentration (MIC) in data set [1] is 6.63 µM (≈ 1.1 µg/mL). Moreover, the Activity with Vero was above 100 µM.

In data set [1], `NNC(=O)c1ccncc1` [ISONIAZID] displayed an MIC of 0.36 µM (≈ 0.0494 µg/mL). Further, the Activity in the data set on Vero is above 100 µM.

Consider `NC(=O)c1cnccn1` [PYRAZINAMIDE], for which, in data set [1], it took 3.12 µM (≈ 0.384 µg/mL) to inhibit growth (MIC). Further, the Activity with Vero is above 100 µM.
